We go through two compounds from patent US20190275010A1, “COMBINATION THERAPY COMPRISING A THIAZOLE AND A SECOSTEROID TO TREAT SKIN CONDITIONS” (Avexxin AS, priority 2016, published 2019).

For the assay, the system named is HaCaT cells. Nature of the assay: Resazurin assay, HaCaT keratinocyte cell viability. The class given is cell-based, human. To be noted: for effect on cell viability at 10 μM: single agent 10 μM, 24 hours (FIG. 1); for concentration at which the compound was found to reduce cell viability: single agent dose response, 24 hours treatment, resazurin (FIG. 1). The procedure: The spontaneously immortalized, nontumorigenic skin keratinocyte cell line HaCaT was maintained in DMEM supplemented with 5% (v/v) FBS, 0.3 mg/ml glutamine and 0.1 mg/ml gentamicin at 37° C. with 5% CO2 in a humidified atmosphere. Subculture using trypsin-EDTA was performed every 3-4 days with split ratio of 1:3-1:4 to ensure actively proliferating cells.
Cells were seeded in 96 well plates in fully supplemented medium at a density of 3000 cells per well. Following 72 hour of cultivation, the cells were starved of serum in 0.25% FBS/DMEM overnight to halt proliferation, synchronize the cells and to increase cell sensitivity to treatment. Next day, the cells were treated with cPLA2α inhibitor Compound B, Compound A, vitamin D analogue Calcipotriol and corticosteroid hormone receptor agonist Betamethasone dipropionate for 24 hours. Resazurin was added next day according to the manufacturer's instruction (RnD Systems, UK) and left to incubate for […] in incubator at 37° C. with 5% CO2 in a humidified atmosphere before fluorescence was read at 544 nm excitation and 590 nm emission wavelength. The cells were observed under the microscope to evaluate possible morphology changes and signs of stress before addition of resazurin. The experiments were performed in series of 8 wells per treatment and repeated 3 times.

Structures are written as SMILES. “Also recorded” adds a separate entry of the source.

With `C=C1/C(=C\C=C2/CCC[C@]3(C)[C@@H]([C@H](C)/C=C/[C@@H](O)C4CC4)CC[C@@H]23)C[C@@H](O)C[C@@H]1O` [Calcipotriol], the “effect on cell viability at 10 μM” value is given as “no signs of impairment in cell viability; also recorded: no toxicity” and the “concentration at which the compound was found to reduce cell viability” value is 15 µM.

As for `CCCCCCCOc1ccc(OCC(=O)c2nc(C(=O)OC)cs2)cc1` [Compound A1], the “effect on cell viability at 10 μM” value is recorded as “no toxicity” and the “concentration at which the compound was found to reduce cell viability” value is 20 µM.
